{"source": "PubChem BioAssay (NCI)", "test_in_all_cases": "NCI anticancer screen, dose series, 48 h", "key": {"[1]": {"system": "OVCAR-8 ovarian"}, "[2]": {"system": "NCI-H23 lung"}, "[3]": {"system": "NCI-H460 lung"}, "[4]": {"system": "ACHN renal"}, "[5]": {"system": "PC-3 prostate"}, "[6]": {"system": "EKVX NSCLC"}, "[7]": {"system": "CAKI-1 renal"}, "[8]": {"system": "OVCAR-5 ovarian"}, "[9]": {"system": "U251 CNS"}, "[10]": {"system": "KM12 colon"}, "[11]": {"system": "MCF7 breast"}, "[12]": {"system": "TK-10 renal"}, "[13]": {"system": "UACC-257 melanoma"}, "[14]": {"system": "LOX IMVI melanoma"}, "[15]": {"system": "HOP-62 NSCLC"}, "[16]": {"system": "786-0 renal"}, "[17]": {"system": "T-47D breast"}, "[18]": {"system": "SK-MEL-2 melanoma"}, "[19]": {"system": "SF-268 CNS"}, "[20]": {"system": "NCI/ADR-RES ovarian"}, "[21]": {"system": "HCT-116 colon"}, "[22]": {"system": "COLO 205 colon"}, "[23]": {"system": "BT-549 breast"}, "[24]": {"system": "SN12C renal"}, "[25]": {"system": "SR leukemia"}, "[26]": {"system": "HL-60(TB) leukemia"}, "[27]": {"system": "SF-539 CNS"}, "[28]": {"system": "DU-145 prostate"}, "[29]": {"system": "SF-295 CNS"}, "[30]": {"system": "HCT-15 colon"}, "[31]": {"system": "OVCAR-3 ovarian"}, "[32]": {"system": "SK-OV-3 ovarian"}, "[33]": {"system": "CCRF-CEM leukemia"}, "[34]": {"system": "SK-MEL-5 melanoma"}, "[35]": {"system": "M14 melanoma"}, "[36]": {"system": "MDA-MB-435"}, "[37]": {"system": "HOP-92 NSCLC"}, "[38]": {"system": "NCI-H522 lung"}, "[39]": {"system": "IGROV1 ovarian"}, "[40]": {"system": "A549 NSCLC"}, "[41]": {"system": "RPMI-8226 leukemia"}, "[42]": {"system": "K-562 leukemia"}, "[43]": {"system": "UACC-62 melanoma"}, "[44]": {"system": "SNB-19 CNS"}, "[45]": {"system": "HS 578T breast"}, "[46]": {"system": "MDA-MB-231 breast"}, "[47]": {"system": "SK-MEL-28 melanoma"}, "[48]": {"system": "SW-620 colon"}, "[49]": {"system": "HCC-2998 colon"}, "[50]": {"system": "UO-31 renal"}}, "note": "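How tested: cells in 96-well plates exposed to compound for 48 hours at five concentrations. GI50 = concentration required for 50% inhibition of growth. Definition used: TGI = concentration required for complete inhibition of growth.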"}
{"smiles": "Clc1cccc(NC=Nc2ccc(-c3nc4ccccc4s3)cc2)c1", "values": [{"measurement": "GI50", "setting": "[1]", "value": 13.1, "unit": "µM"}, {"measurement": "TGI", "setting": "[1]", "value": 30.6, "unit": "µM"}, {"measurement": "GI50", "setting": "[2]", "value": 16.1, "unit": "µM"}, {"measurement": "TGI", "setting": "[2]", "value": 48.1, "unit": "µM"}, {"measurement": "GI50", "setting": "[3]", "value": 9.44, "unit": "µM"}, {"measurement": "TGI", "setting": "[3]", "value": 23.3, "unit": "µM"}, {"measurement": "GI50", "setting": "[4]", "value": 11.7, "unit": "µM"}, {"measurement": "TGI", "setting": "[4]", "value": 27.6, "unit": "µM"}, {"measurement": "GI50", "setting": "[5]", "value": 12.1, "unit": "µM"}, {"measurement": "TGI", "setting": "[5]", "value": "> 50", "unit": "µM"}, {"measurement": "GI50", "setting": "[6]", "value": 3.97, "unit": "µM"}, {"measurement": "TGI", "setting": "[6]", "value": 29.9, "unit": "µM"}, {"measurement": "GI50", "setting": "[7]", "value": 17.8, "unit": "µM"}, {"measurement": "TGI", "setting": "[7]", "value": "> 50", "unit": "µM"}, {"measurement": "GI50", "setting": "[8]", "value": 23.6, "unit": "µM"}, {"measurement": "TGI", "setting": "[8]", "value": "> 50", "unit": "µM"}, {"measurement": "GI50", "setting": "[9]", "value": 7.85, "unit": "µM"}, {"measurement": "TGI", "setting": "[9]", "value": 15.4, "unit": "µM"}, {"measurement": "GI50", "setting": "[10]", "value": 13.7, "unit": "µM"}, {"measurement": "TGI", "setting": "[10]", "value": 38.3, "unit": "µM"}, {"measurement": "GI50", "setting": "[11]", "value": 9.44, "unit": "µM"}, {"measurement": "TGI", "setting": "[11]", "value": 35.6, "unit": "µM"}, {"measurement": "GI50", "setting": "[12]", "value": 21, "unit": "µM"}, {"measurement": "TGI", "setting": "[12]", "value": "> 50", "unit": "µM"}, {"measurement": "GI50", "setting": "[13]", "value": 16.1, "unit": "µM"}, {"measurement": "TGI", "setting": "[13]", "value": 36.6, "unit": "µM"}, {"measurement": "GI50", "setting": "[14]", "value": 9.46, "unit": "µM"}, {"measurement": "TGI", "setting": "[14]", "value": 17.5, "unit": "µM"}, {"measurement": "GI50", "setting": "[15]", "value": 42.3, "unit": "µM"}, {"measurement": "TGI", "setting": "[15]", "value": "> 50", "unit": "µM"}, {"measurement": "GI50", "setting": "[16]", "value": 10.6, "unit": "µM"}, {"measurement": "TGI", "setting": "[16]", "value": 18.6, "unit": "µM"}, {"measurement": "GI50", "setting": "[17]", "value": 10.8, "unit": "µM"}, {"measurement": "TGI", "setting": "[17]", "value": 39, "unit": "µM"}, {"measurement": "GI50", "setting": "[18]", "value": 18, "unit": "µM"}, {"measurement": "TGI", "setting": "[18]", "value": "> 50", "unit": "µM"}, {"measurement": "GI50", "setting": "[19]", "value": 10.6, "unit": "µM"}, {"measurement": "TGI", "setting": "[19]", "value": 46.4, "unit": "µM"}, {"measurement": "GI50", "setting": "[20]", "value": 13.2, "unit": "µM"}, {"measurement": "TGI", "setting": "[20]", "value": 32, "unit": "µM"}, {"measurement": "GI50", "setting": "[21]", "value": 11, "unit": "µM"}, {"measurement": "TGI", "setting": "[21]", "value": 24.1, "unit": "µM"}, {"measurement": "GI50", "setting": "[22]", "value": 12.2, "unit": "µM"}, {"measurement": "TGI", "setting": "[22]", "value": 39.9, "unit": "µM"}, {"measurement": "GI50", "setting": "[23]", "value": 23.3, "unit": "µM"}, {"measurement": "TGI", "setting": "[23]", "value": "> 50", "unit": "µM"}, {"measurement": "GI50", "setting": "[24]", "value": 20.4, "unit": "µM"}, {"measurement": "TGI", "setting": "[24]", "value": "> 50", "unit": "µM"}, {"measurement": "GI50", "setting": "[25]", "value": 9.55, "unit": "µM"}, {"measurement": "TGI", "setting": "[25]", "value": 21.1, "unit": "µM"}, {"measurement": "GI50", "setting": "[26]", "value": 10.5, "unit": "µM"}, {"measurement": "TGI", "setting": "[26]", "value": 27.3, "unit": "µM"}, {"measurement": "GI50", "setting": "[27]", "value": 17.8, "unit": "µM"}, {"measurement": "TGI", "setting": "[27]", "value": 34.1, "unit": "µM"}, {"measurement": "GI50", "setting": "[28]", "value": 16.4, "unit": "µM"}, {"measurement": "TGI", "setting": "[28]", "value": 38.8, "unit": "µM"}, {"measurement": "GI50", "setting": "[29]", "value": 17.4, "unit": "µM"}, {"measurement": "TGI", "setting": "[29]", "value": "> 50", "unit": "µM"}, {"measurement": "GI50", "setting": "[30]", "value": 9.48, "unit": "µM"}, {"measurement": "TGI", "setting": "[30]", "value": 20, "unit": "µM"}, {"measurement": "GI50", "setting": "[31]", "value": 9.32, "unit": "µM"}, {"measurement": "TGI", "setting": "[31]", "value": 22.7, "unit": "µM"}, {"measurement": "GI50", "setting": "[32]", "value": 31.7, "unit": "µM"}, {"measurement": "TGI", "setting": "[32]", "value": "> 50", "unit": "µM"}, {"measurement": "GI50", "setting": "[33]", "value": 10.5, "unit": "µM"}, {"measurement": "TGI", "setting": "[33]", "value": 25.4, "unit": "µM"}, {"measurement": "GI50", "setting": "[34]", "value": 10.5, "unit": "µM"}, {"measurement": "TGI", "setting": "[34]", "value": 21.6, "unit": "µM"}, {"measurement": "GI50", "setting": "[35]", "value": 14.8, "unit": "µM"}, {"measurement": "TGI", "setting": "[35]", "value": 29.7, "unit": "µM"}, {"measurement": "GI50", "setting": "[36]", "value": 14.3, "unit": "µM"}, {"measurement": "TGI", "setting": "[36]", "value": 32.7, "unit": "µM"}, {"measurement": "GI50", "setting": "[37]", "value": 19.6, "unit": "µM"}, {"measurement": "TGI", "setting": "[37]", "value": "> 50", "unit": "µM"}, {"measurement": "GI50", "setting": "[38]", "value": 11.8, "unit": "µM"}, {"measurement": "TGI", "setting": "[38]", "value": 22.3, "unit": "µM"}, {"measurement": "GI50", "setting": "[39]", "value": 11.3, "unit": "µM"}, {"measurement": "TGI", "setting": "[39]", "value": 24.3, "unit": "µM"}, {"measurement": "GI50", "setting": "[40]", "value": 9.11, "unit": "µM"}, {"measurement": "TGI", "setting": "[40]", "value": 20.4, "unit": "µM"}, {"measurement": "GI50", "setting": "[41]", "value": 14.4, "unit": "µM"}, {"measurement": "TGI", "setting": "[41]", "value": "> 50", "unit": "µM"}, {"measurement": "GI50", "setting": "[42]", "value": 7.81, "unit": "µM"}, {"measurement": "TGI", "setting": "[42]", "value": 18.2, "unit": "µM"}, {"measurement": "GI50", "setting": "[43]", "value": 13, "unit": "µM"}, {"measurement": "TGI", "setting": "[43]", "value": 38.1, "unit": "µM"}, {"measurement": "GI50", "setting": "[44]", "value": 15.2, "unit": "µM"}, {"measurement": "TGI", "setting": "[44]", "value": "> 50", "unit": "µM"}, {"measurement": "GI50", "setting": "[45]", "value": 32.6, "unit": "µM"}, {"measurement": "TGI", "setting": "[45]", "value": "> 50", "unit": "µM"}, {"measurement": "GI50", "setting": "[46]", "value": 9.72, "unit": "µM"}, {"measurement": "TGI", "setting": "[46]", "value": 23.6, "unit": "µM"}, {"measurement": "GI50", "setting": "[47]", "value": 0.143, "unit": "µM"}, {"measurement": "TGI", "setting": "[47]", "value": 18.4, "unit": "µM"}, {"measurement": "GI50", "setting": "[48]", "value": 16.7, "unit": "µM"}, {"measurement": "TGI", "setting": "[48]", "value": "> 50", "unit": "µM"}, {"measurement": "GI50", "setting": "[49]", "value": 16, "unit": "µM"}, {"measurement": "TGI", "setting": "[49]", "value": 42.5, "unit": "µM"}, {"measurement": "GI50", "setting": "[50]", "value": 13.8, "unit": "µM"}, {"measurement": "TGI", "setting": "[50]", "value": 33.6, "unit": "µM"}]}
